Reference: patent US20230123488A1, “STABLE TOPICAL TETRACYCLINE COMPOSITIONS” (VYNE THERAPEUTICS INC., priority 2017, published 2023)
Counter-ions that a name gives are not always drawn. Like-named read-outs stand apart in the source and are kept apart here.

Tests used:
[1] = Doxycycline solubility in various solvents; type: physicochemical; conditions: supernatant
Description: Saturated solutions of doxycycline hyclate are prepared by stirring doxycycline in approximately 20 g of solvents for over 48 hours at room temperature. By the end of stirring, all samples have solids in equilibrium with liquids. The samples are filtered and subjected to quantification using UPLC.
Each composition was subjected to centrifugation and the supernatant with dissolved active agent analyzed. The weight /weight percentage of active agent found dissolved in each solvent is shown below: […]

[2] = Compatibility test of active agent with excipients; type: physicochemical; conditions: excipients: soybean oil, paraffin 57-64, polyvinyl alcohol and hydroxypropylcellulose (klucel)
Description: Compatibility tests were performed as described in US8,343,945 and US8,945,516, which are incorporated here by reference with respect to the excipients and their compatibility described herein. […] The mixture was assessed for active agent degradation and optionally for color change.

[3] = Cyclomethicone 5 NF, Diisopropyl adipate, Hydrogenated Castor Oil, MCT Oil, cited from earlier work
[4] = in Isopropyl myristate, room temperature, 72 hours
[5] = in Oleic acid, room temperature, 72 hours

Compound	Doxycycline content (solubility) [1, 4]	Doxycycline content (solubility) [1, 5]	Compatibility with additional excipients [2]	Compatibility with excipients ([3]; excipients: Aerosil, Almond oil, Avocado oil, Beeswax, Behenyl alcohol, Calendula oil, Castor oil, Cetearyl octanoate, Cetostearyl alcohol, Cetyl alcohol, Cocoglycerides, Coconut oil, Gelled mineral oil, Grape seed oil, Hard Fat, Isododecane, isopropyl myristate, Isostearyl alcohol, Jojoba oil, Menthol, Myrist)	Doxycycline content (solubility) ([1]; in 1,3 propane-di-ol, room temperature, 72 hours) [% w/w]	Doxycycline content (solubility) ([1]; in Dimethyl isosorbide, excess doxycycline hyclate stirred at room temperature for 72 hours) [% w/w]	Doxycycline content (solubility) ([1]; in Dimethyl sulfoxide, room temperature, 72 hours) [% w/w]	Doxycycline content (solubility) ([1]; in Ethanol, room temperature, 72 hours) [% w/w]	Doxycycline content (solubility) ([1]; in Glycerin, room temperature, 72 hours) [% w/w]	Doxycycline content (solubility) ([1]; in Hexylene glycol, room temperature, 72 hours) [% w/w]	Doxycycline content (solubility) ([1]; in Isopropanol, room temperature, 72 hours) [% w/w]	Doxycycline content (solubility) ([1]; in Oleyl alcohol, room temperature, 72 hours) [% w/w]	Doxycycline content (solubility) ([1]; in Propylene carbonate, room temperature, 72 hours) [% w/w]	Doxycycline content (solubility) ([1]; in Propylene glycol, room temperature, 72 hours) [% w/w]	Doxycycline content (solubility) ([1]; in Transcutol, room temperature, 72 hours) [% w/w]	Compatibility with excipients ([3]; excipients: Cetearyl octanoate, Ethanol 95%, Hexylene glycol, Isostearic acid, Mineral Oil, Myristyl alcohol, Oleyl alcohol, PEG 100 Stearate, PPG-15 Stearyl Ether, Sorbitan Monostearate (SPAN 60), Stearyl alcohol)
C[C@H]1c2cccc(O)c2C(=O)C2=C(O)[C@]3(O)C(=O)C(C(N)=O)=C(O)[C@@H](N(C)C)[C@@H]3[C@@H](O)[C@@H]21 [doxycycline, Doxycycline]	Not detected	Not detected														
CN(C)c1ccc(O)c2c1C[C@H]1C[C@H]3[C@H](N(C)C)C(O)=C(C(N)=O)C(=O)[C@@]3(O)C(O)=C1C2=O [minocycline HCL, Minocycline HCL]			compatible	compatible												
Doxycycline Hyclate [Dox hyclate]	Not detected	Not detected			21.56	4.12	25.34	3.15	18.28	5.47	1.67	0.29	0.78	34.17	16.30	compatible
